We go through 20 compounds from PubChem BioAssay (NCI).

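Where inhibition never reached the appropriate level, the endpoint shown equals the highest concentration tested. Otherwise, values were interpolated linearly from a five-concentration, 48-hour dose response in 96-well plates. At the TGI there is no net growth.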

Some test systems named below: DMS 114 small cell lung; CAKI-1 renal; HOP-18 NSCLC; M19-MEL melanoma; SNB-78 CNS; XF 498 CNS; DLD-1 colon; SK-OV-3 ovarian; LXFL 529 NSCLC; RXF-631 renal; KM20L2 colon; DMS 273 small cell lung.
Common to all, as to assay: DTP human tumour cell line panel, 48 h

In the case of `O=C(N/N=C(/c1nc2ccc([N+](=O)[O-])cc2[nH]c1=O)C(O)c1ccc([N+](=O)[O-])cc1)c1ccncc1` (configuration not stated), the TGI with DMS 114 small cell lung, in the experiment with CAKI-1 renal, with HOP-18 NSCLC, with M19-MEL melanoma, in the experiment with SNB-78 CNS and in the experiment with XF 498 CNS was over 100 µM each time. Besides, the TGI with DLD-1 colon, with SK-OV-3 ovarian and in the experiment on LXFL 529 NSCLC was over 100 µM in each case.

As to `C/C(=N/NC(=O)C[n+]1ccccc1)C(CN(CC(C)C)CC(C)C)C(=O)Nc1ccc(C)cc1C` (configuration not stated), the total growth inhibition concentration (TGI) with DMS 114 small cell lung, in the experiment on RXF-631 renal, in the experiment with M19-MEL melanoma, in the experiment with DLD-1 colon, in the experiment on SK-OV-3 ovarian and in the experiment on KM20L2 colon was over 100 µM in each case.

With `CCCCNC(=NCc1ccccc1)NC#N`, the total growth inhibition concentration (TGI) in the experiment on CAKI-1 renal, in the experiment on M19-MEL melanoma, in the experiment with SNB-78 CNS, in the experiment on XF 498 CNS, in the experiment with DMS 273 small cell lung and in the experiment with DLD-1 colon was over 100 µM throughout. The concentration for total growth inhibition (TGI) in the experiment on SK-OV-3 ovarian, in the experiment on KM20L2 colon and in the experiment on LXFL 529 NSCLC was over 100 µM in each case.

With `Clc1ccc(CCc2ccncn2)c(Cl)c1`, the concentration for total growth inhibition (TGI) in the experiment on DMS 114 small cell lung, in the experiment with CAKI-1 renal, with RXF-631 renal, in the experiment with HOP-18 NSCLC, with M19-MEL melanoma and with SNB-78 CNS was over 100 µM each time. Further, the concentration for total growth inhibition (TGI) in the experiment with DMS 273 small cell lung, in the experiment with DLD-1 colon, in the experiment on SK-OV-3 ovarian, with KM20L2 colon and with LXFL 529 NSCLC was over 100 µM in each case.

Take `Oc1cc(CN2CCOCCOCCOCCOCC2)c(O)cc1CN1CCOCCOCCOCCOCC1`: the total growth inhibition concentration (TGI) with CAKI-1 renal is 38.9 µM; in the experiment on M19-MEL melanoma it was 19.3 µM; with SNB-78 CNS, over 100 µM; in the experiment on XF 498 CNS, 42.5 µM; in the experiment with DLD-1 colon it was 48.2 µM; in the experiment on SK-OV-3 ovarian it was over 100 µM. The TGI in the experiment with KM20L2 colon is over 100 µM; in the experiment on LXFL 529 NSCLC, 44.2 µM.

For the compound `Cc1cc(C)c2c(c1)N[S@@](=O)S2`, the total growth inhibition concentration (TGI) is 38.7 µM with DMS 114 small cell lung; 70.8 µM in the experiment with CAKI-1 renal; 92.1 µM with HOP-18 NSCLC; 46.7 µM in the experiment with M19-MEL melanoma; over 100 µM in the experiment on SNB-78 CNS; 50.1 µM in the experiment with XF 498 CNS. Moreover, the TGI with DMS 273 small cell lung is 38.2 µM; in the experiment on DLD-1 colon, 59.2 µM; in the experiment on SK-OV-3 ovarian, 90.6 µM; in the experiment on KM20L2 colon, over 100 µM; in the experiment with LXFL 529 NSCLC, 29.4 µM.

For `O=C(Cc1ccc([N+](=O)[O-])c([N+](=O)[O-])c1CC(=O)C(=O)Nc1cc(Cl)ccc1Cl)C(=O)Nc1cc(Cl)ccc1Cl`, the TGI in the experiment on DMS 114 small cell lung was over 100 µM; in the experiment with CAKI-1 renal it was over 100 µM; with HOP-18 NSCLC, over 100 µM; in the experiment with M19-MEL melanoma it was over 100 µM; in the experiment with SNB-78 CNS it was over 100 µM; in the experiment on DMS 273 small cell lung, 87.3 µM. Also, the concentration for total growth inhibition (TGI) with DLD-1 colon, in the experiment with SK-OV-3 ovarian, with KM20L2 colon and with LXFL 529 NSCLC was over 100 µM each time.

Regarding `COc1ccccc1-n1c(NN)nc2ccc(Br)cc2c1=O`, the total growth inhibition concentration (TGI) in the experiment on DMS 114 small cell lung was over 100 µM; with CAKI-1 renal it was over 100 µM; with RXF-631 renal, over 100 µM; in the experiment with HOP-18 NSCLC it was 61.5 µM; in the experiment on M19-MEL melanoma, over 100 µM; in the experiment on SNB-78 CNS, over 100 µM. The TGI in the experiment on XF 498 CNS was 92.1 µM; in the experiment with DMS 273 small cell lung it was over 100 µM; in the experiment on DLD-1 colon, over 100 µM; in the experiment with SK-OV-3 ovarian, 99.3 µM; in the experiment on KM20L2 colon, over 100 µM; with LXFL 529 NSCLC, over 100 µM.

With `CC(C)N(C(=O)C12C3C4C1C1C2C3C41I)C(C)C` (configuration not stated), the TGI in the experiment with DMS 114 small cell lung, with CAKI-1 renal, in the experiment on RXF-631 renal, in the experiment with M19-MEL melanoma, in the experiment on SNB-78 CNS and in the experiment on XF 498 CNS was over 100 µM throughout. Further, the concentration for total growth inhibition (TGI) in the experiment on DMS 273 small cell lung, in the experiment on SK-OV-3 ovarian and with LXFL 529 NSCLC was over 100 µM in each case.

As for `C#CCNC(=O)NCCCCC(NC(C)=O)C(=O)NCc1ccccc1` (configuration not stated), the TGI in the experiment with DMS 114 small cell lung, in the experiment with CAKI-1 renal, in the experiment on RXF-631 renal, with HOP-18 NSCLC, in the experiment on M19-MEL melanoma and in the experiment with SNB-78 CNS was over 100 µM throughout. Besides, the TGI in the experiment with XF 498 CNS, with DLD-1 colon, with SK-OV-3 ovarian, in the experiment on KM20L2 colon and with LXFL 529 NSCLC was over 100 µM each time.

For the compound `CC/C(=N/O)c1ccc2[nH]c3c(C)cc([N+](=O)[O-])c(C)c3c2c1`, the total growth inhibition concentration (TGI) in the experiment with DMS 114 small cell lung, in the experiment on CAKI-1 renal, with HOP-18 NSCLC, with M19-MEL melanoma, with SNB-78 CNS and with XF 498 CNS was over 100 µM throughout. In addition, the TGI with DMS 273 small cell lung was 60.8 µM; in the experiment on DLD-1 colon, over 100 µM.

For `COc1cc(C2C(C(=O)Nc3ccc([N+](=O)[O-])cc3)=C(C)NC(C)=C2C(=O)Nc2ccc([N+](=O)[O-])cc2)ccc1O`, the TGI with DMS 114 small cell lung is over 74.5 µM; in the experiment with CAKI-1 renal, over 86.6 µM; with RXF-631 renal, over 100 µM; in the experiment on HOP-18 NSCLC, over 74.2 µM; in the experiment with M19-MEL melanoma, 43.3 µM; in the experiment with SNB-78 CNS, over 100 µM. For the same compound, the total growth inhibition concentration (TGI) with XF 498 CNS is 69.1 µM; in the experiment with DMS 273 small cell lung, 53.3 µM; with DLD-1 colon, over 68.6 µM; with SK-OV-3 ovarian, 77.8 µM; in the experiment on KM20L2 colon, 34.7 µM; in the experiment on LXFL 529 NSCLC it was 64 µM.

In the case of `C[C@@H]1OC2(O)[C@H]3CCCN3S(=O)(=O)CCN2C1=O` (some centres not stated), the concentration for total growth inhibition (TGI) with CAKI-1 renal, with RXF-631 renal, in the experiment with HOP-18 NSCLC, in the experiment on M19-MEL melanoma, in the experiment on SNB-78 CNS and with DLD-1 colon was over 100 µM each time. Moreover, the TGI with SK-OV-3 ovarian, with KM20L2 colon and in the experiment with LXFL 529 NSCLC was over 100 µM throughout.

`COc1cc2c(cc1O)CN1CCC23C=C[C@@H](O)CC13` (some centres not stated): the total growth inhibition concentration (TGI) in the experiment with DMS 114 small cell lung, in the experiment with CAKI-1 renal, in the experiment with HOP-18 NSCLC, in the experiment with M19-MEL melanoma, in the experiment with SNB-78 CNS and in the experiment on DMS 273 small cell lung was over 100 µM in each case. Moreover, the TGI in the experiment with DLD-1 colon, in the experiment on SK-OV-3 ovarian, with KM20L2 colon and with LXFL 529 NSCLC was over 100 µM in each case.

In the case of `N#C/C(=C\c1cc(O)ccc1O)C(N)=O`, the TGI in the experiment with DMS 114 small cell lung was 70.9 µM; in the experiment on CAKI-1 renal it was over 100 µM; with RXF-631 renal, over 100 µM; with M19-MEL melanoma it was over 100 µM; in the experiment with SNB-78 CNS it was over 100 µM; with XF 498 CNS, over 100 µM. The TGI in the experiment on DMS 273 small cell lung, with DLD-1 colon, in the experiment on SK-OV-3 ovarian, with KM20L2 colon and in the experiment on LXFL 529 NSCLC was over 100 µM in each case.

Turning to `Cc1nc(-n2nc(-c3ccccc3)cc2-c2ccccc2)sc1C(=O)/C=C/c1ccc(Cl)c(Cl)c1`, the TGI with DMS 114 small cell lung is over 100 µM; in the experiment on CAKI-1 renal it was 78.7 µM; in the experiment with RXF-631 renal, over 100 µM; with M19-MEL melanoma, over 100 µM; in the experiment on SNB-78 CNS, 73.6 µM; in the experiment with XF 498 CNS, 30.8 µM. Besides, the TGI is over 100 µM in the experiment with DMS 273 small cell lung; 48.2 µM in the experiment with DLD-1 colon; over 100 µM in the experiment on SK-OV-3 ovarian; 70.3 µM in the experiment on KM20L2 colon; 32 µM in the experiment with LXFL 529 NSCLC.

As for `C[C@@H]1O[C@]2(O)[C@@H]3CCCN3S(=O)(=O)CCN2C1=O`, the concentration for total growth inhibition (TGI) in the experiment on CAKI-1 renal, with RXF-631 renal, with HOP-18 NSCLC, in the experiment with M19-MEL melanoma, in the experiment with SNB-78 CNS and with XF 498 CNS was over 100 µM throughout. For the same compound, the TGI in the experiment on DLD-1 colon, in the experiment on SK-OV-3 ovarian, with KM20L2 colon and in the experiment on LXFL 529 NSCLC was over 100 µM each time.

For `CCN(CC)CCC1(C2CCCCC2)CCC(=O)NC1=O` (configuration not stated), the total growth inhibition concentration (TGI) in the experiment with DMS 114 small cell lung, in the experiment with CAKI-1 renal, in the experiment with RXF-631 renal, in the experiment with M19-MEL melanoma, in the experiment on SNB-78 CNS and in the experiment with XF 498 CNS was over 100 µM throughout. Further, the total growth inhibition concentration (TGI) with DMS 273 small cell lung, in the experiment with DLD-1 colon, with SK-OV-3 ovarian, with KM20L2 colon and with LXFL 529 NSCLC was over 100 µM throughout.

With `COc1ccccc1-n1c(N)c2c(C)c(-c3ccccc3)[nH]c2nc1=S`, the TGI with DMS 114 small cell lung, in the experiment with CAKI-1 renal, in the experiment on HOP-18 NSCLC, with M19-MEL melanoma, in the experiment with XF 498 CNS and with DMS 273 small cell lung was over 100 µM each time. For the same compound, the TGI in the experiment on DLD-1 colon, with KM20L2 colon and with LXFL 529 NSCLC was over 100 µM in each case.

On to `CC1(C)OCN(c2ccc(S(N)(=O)=O)cc2)Cn2c1nc1ccccc12`, for which the TGI in the experiment on DMS 114 small cell lung, with HOP-18 NSCLC, in the experiment on M19-MEL melanoma, in the experiment on SNB-78 CNS, in the experiment with XF 498 CNS and in the experiment on DMS 273 small cell lung was over 100 µM in each case. Further, the TGI with DLD-1 colon, in the experiment on SK-OV-3 ovarian, in the experiment on KM20L2 colon and in the experiment with LXFL 529 NSCLC was over 100 µM in each case.

The TGI is the concentration at which net growth stops. High values mean lower sensitivity of the cells, low ones greater sensitivity of the cells.
